Entries after “also recorded” stand apart in the source; their conditions may differ.
Experiments:
[1] = test system: primary murine aortic vascular smooth muscle cells (VSMC); assay: VSMC proliferation assay (Coulter counter / MTS-based); type: cell-based, mouse
Protocol: The methods used in the above experiments were as follows: Cell Culture and VSMC Proliferation Assays. Primary VSMC were isolated from aortic explants of wildtype, ob/ob, or db/db mice in the method of Roque et al. 30. VSMC were routinely cultured in Dulbecco's Modified Eagle's Medium (DMEM) containing either 4500 or 1250 mg/L glucose supplemented with 20% FBS at 37° C. in a 5% CO2 incubator. […] Cells were plated at 200,000 cells/ well of a 6 well dish and subsequently serum starved for 72 hr in DMEM media supplemented with 0.1 % FBS. Leptin dissolved in PBS was added directly to serum-free media at concentrations of 1, 10, or 100 ng/ml with […] LY294002 or U0126, and cells were grown for another 72 hr before harvesting. VSMC proliferation was measured by counting samples using a Coulter counter or using the Cell Titre 96 Aqueous One Solution Cell Proliferation Assay kit (Promega). Cell viability was assessed by Trypan Blue staining.
Proliferation of VSMCs: VSMC proliferation was measured by counting triplicate samples using a Coulter counter or using the CellTitier 96 Aqueous One Solution Cell Proliferation Assay (Promega, Madison, Wis.) kit per manufacturer's instructions. Cell viability was assessed via staining with Trypan Blue.
Murine VSMCs (2×10^4 cells/well) were incubated in a 6-well tissue culture plate for 72 hours in DMEM containing 0.1% FBS with or without insulin (10 or 100 nmol/L) and with 0, 1, 10, or 100 nmol/L rapamycin. Triplicate samples were counted using a Coulter counter and were normalized as percentage of the control group. Cell viability was checked via Trypan blue staining.
Murine VSMCs, seeded 2×10^4 cells/well in a 6-well plate, were starved for 72 hrs in DMEM with 0.1% FBS. Rapamycin, leptin, or insulin in different concentrations indicated in the figure were incubated with VSMCs in DMEM with 0.1% of FBS for 72 hrs. Triplicate samples were counted via a Coulter counter. Cell viability was checked via Trypan blue staining. […] In panel C, VSMCs were exposed to U0126, a specific MEK1/2 inhibitor, or LY294002, a specific PI3K inhibitor.
Primary VSMC were isolated from aortic explants of WT, ob/ob, or db/db mice (46). VSMC proliferation was determined using the Cell Titre Aqueous One Solution Proliferation Assay (Promega, Madison, Wis.). Migration to PDGF-BB was assessed in a modified Boyden chamber assay (47).

[2] = test system: murine femoral artery wire injury model (neointimal hyperplasia); assay: Femoral artery wire injury model, morphometry of neointimal formation; type: in vivo, mouse; parameters: Lumen / Media / Intima / TVA (total vessel area): unit not given here
Excerpt: Animal Models and Drug Treatments. Wild type C57BL/6J background mice and mice deficient for leptin (C57BL/6J-Lepob; ob/ob) or the leptin receptor (C57BL/6J-m+/+Lepdb; db/db) were purchased from Charles Jackson Laboratories, Maine. Mice were obtained at ages 6-8 weeks old and average weight 15 g. Animals were fed standard rodent chow and tap water ad libitum. Procedures and animal care were approved by the Institutional Animal Care and Use Committee. Mice were subjected to femoral artery wire injury or sham injury described below 24 hr prior to starting pharmacological treatments. Sirolimus was administered by intraperitoneal injection once per day for 14 days as a suspension in 0.2% sodium carboxymethyl cellulose and 0.25% polysorbate-80; duplicate experiments were accomplished with 0.5% DMSO. Leptin or LY294002 was administered by intraperitoneal injection once per day for 14 days as a suspension in PBS. Plasma leptin levels were measured at baseline, 3, 6, and 10 hr after leptin injection using an ELISA assay (R&D). Leptin plus the vehicle used for both sirolimus and LY294002 was used as the control group for the treatment groups with sirolimus and LY294002. After the 2-week treatment, animals were processed for femoral artery morphometry.
Femoral Artery Injury Model. Endoluminal injury of bilateral femoral arteries was performed according to the method of Roque et al. with minor modification 27. […] Briefly, to denude and dilate femoral arteries, a 0.014″ angioplasty guidewire (Guidant) was passed endoluminally 3 times to the level of the aortic bifurcation. A sham protocol was performed where the arteries underwent dissection, clamping, and ligature without passage of the guidewire.
Computer-aided quantitative morphometry to measure luminal, medial, intimal, and vessel areas were performed as previously described 27 with minor modification. Mice were euthanized via CO2 asphyxiation prior to en bloc excision of hind limbs. Briefly, multiple segments of the common femoral artery at the level of injury were fixed in 10% Zinc Formalin, embedded in paraffin, sectioned at […] thickness, and subjected to Elastic-Van Gieson staining at a Columbia University Core Histology facility. In many cases, arteries underwent immunohistochemical staining for smooth muscle a-actin to highlight the media and neointima. Photomicrographs were captured on Adobe Photoshop 7.0 and transferred to Scion Image software for quantitative analysis. Specimens were analyzed by two independent operators blinded to the treatment groups. Microsoft Excel software was used to calculate the RNI values from I/M ratios in the absence and presence of pharmacological inhibitors, as detailed in the text.
Surgical Procedures: The mouse femoral artery wire injury model of was used with minor modifications (Roque M, et al., Arterioscler Thromb Vasc Biol, 2000, 20(2):335-42). Briefly, forty-two male mice were studied. Endoluminal injury to the common femoral artery was produced by either 3 passages of a 0.014″ diameter angioplasty guidewire (Guidant, Santa Clara, Calif.). […] While being viewed under a surgical microscope, a groin incision was made and the femoral artery was isolated and temporarily clamped distal to the inguinal ligament. An arteriotomy was performed and the guidewire was passed 3 times to the level of the aortic bifurcation. The artery was then ligated proximal to the arteriotomy. A sham protocol was carried out on the contralateral side where the arteries underwent dissection, temporary clamping, and ligature, without passage of the wire. The formation of the neointima was confirmed in this model as being comprised mainly of VSMCs through immunohistochemical staining of representative sections for α-smooth muscle actin via a commercial kit (Sigma).
For all treatment protocols, rapamycin was administered by intraperitoneal injection once per day, for 14 days, as a suspension in 0.2% sodium carboxymethyl cellulose and 0.25% polysorbate-80. […]

[3] = test system: Akt Thr-308 phosphorylation; assay: Akt Thr-308 phosphorylation in descending aorta homogenates after i.p. treatment; type: in vivo; conditions: Mus musculus, ip, 168 h; LY294002 1.2 mg/kg/day i.p., 7 days; read-out: inhibition of basal Thr-308 phosphorylation of Akt in descending aortas
Excerpt: Animals were processed for femoral artery morphometry after the 14-day drug treatments. For assessing LY294002 efficacy in vivo, descending aortas from mice treated with LY294002 or vehicle were harvested after 7 days of treatment; 3-4 aortas were pooled for immunoblot assessment of Akt phosphorylation.

[4] = test system: primary murine aortic vascular smooth muscle cells (VSMC); assay: VSMC proliferation assay (Coulter counter / MTS-based); type: cell-based, mouse; conditions: Example 5; 6 nM leptin; inhibitor 10 μM
[5] = test system: cultured porcine coronary arteries; conditions: LY294002 10 μM; cited from earlier work
[6] = wire injury + leptin 0.4 mg/kg, LY 1.2 mg/kg daily i.p. 14 days, mean ± SD

SMILES: O=c1cc(N2CCOCC2)oc2c(-c3ccccc3)cccc12 [LY294002, 2-(4-morpholinyl)-8-phenyl-4H-1-benzopyran-4-one]
- effect on leptin-induced proliferation of murine VSMC ([1]; Example 1, 100 ng/mL leptin, inhibitor 10 mM, 72 hr): did inhibit
- VSMC proliferation induced by leptin and insulin ([1]; LY294002 compared with 100 nmol/L rapamycin alone): more pronounced effect
- inhibition of leptin-induced neointimal formation ([2]; LY294002 1.2 mg/kg/d alone, leptin 0.4 mg/kg/d, 14 days): partially inhibited; also recorded: not the LY294002 alone group revealed a complete inhibition
- relative neointimal inhibition (RNI) ([2]; LY294002 1.2 mg/kg, leptin 0.4 mg/kg): 0.70
- I/M (intima:media ratio) [2, 6]: 0.574 ± 0.186
- Intima [2, 6]: 0.010 ± 0.003
- Lumen [2, 6]: 0.013 ± 0.002
- Media [2, 6]: 0.020 ± 0.003
- TVA (total vessel area) [2, 6]: 0.044 ± 0.006
- inhibition at 1.2 mg/kg/day [3]: > 80%
- effect on leptin-induced VSMC proliferation [4]: inhibited
- neointimal hyperplasia in cultured porcine coronary arteries [5]: prevents neointimal hyperplasia

From US20090274739A1, “METHODS AND COMPOSITIONS FOR TREATING NEOINTIMAL HYPERPLASIA” (THE TRUSTEES OF COLUMBIA UNIVERSITY IN THE CITY OF NEW YORK, priority 2006, published 2009)
